Data published in patent publication US20070249011A1, “Method for Screening Fungus-Specific Antimicrobial Agent and Kit Therefor” (priority 2004, published 2007).

Legend:
Assay type in all cases: cell-based, Saccharomyces cerevisiae
ATCC201388 [pYES2-HIK1] = experiment: Reagent sensitivity by liquid culture (doubling time), HIK1-expressing yeast; details: 25 ppm reagent, liquid culture in SG/-Ura (GAL1 expression-inducing conditions), 27° C., 160 rpm, average ± standard deviation
pYES2 transformant = experiment: Reagent sensitivity by plate culture, vector-only control yeast
[1] = test system: ssk1 mutant strain introducing pYES2-HIK1; experiment: Reagent sensitivity by plate culture, ssk1 mutant strain introducing pYES2-HIK1; details: 25 ppm fludioxonil, 25 ppm iprodione, 50 ppm chloroneb; SG plates, 30° C., 60 hours (FIG. 7A)
From the text: (§1) A suspension of a control yeast cell introducing pYES2-HIK1 therein (uppermost rows), a suspension of a hog1 mutant strain cell introducing pYES2-HIK1 therein (second rows), a suspension of an ssk1 mutant strain cell introducing pYES2-HIK1 therein (third rows), a suspension of a ste11 mutant strain cell introducing pYES2-HIK1 therein (fourth rows), a suspension of a control yeast cell introducing pYES2 therein (fifth rows), a suspension of a hog1 mutant strain cell introducing pYES2-HIK1 therein (sixth rows), a suspension of an ssk1 mutant strain cell introducing pYES2-HIK1 therein (seventh rows), and a suspension of a ste11 mutant strain cell introducing pYES2-HIK1 therein (lowermost rows) were added (5 μl each) dropwise at 9 mm spacings (from the left, 10^7, 10^6, 10^5, and 10^4/ml) in order from the uppermost rows of plates of 90 mm in diameter containing a variety of reagents, followed by culture at 30° C. for 60 hours (or 96 hours for NaCl). […] A suspension of a hog1 mutant strain cell introducing pCLΔ-HOG1 and pYES2-HIK1 therein (uppermost rows), a suspension of a hog1 mutant strain cell introducing pCLΔ and pYES2-HIK1 therein (second rows), a suspension of an ssk1 mutant strain cell introducing pCLΔ-SSK1 and pYES2-HIK1 therein (third rows), and a suspension of an ssk1 mutant strain cell introducing pCLΔ and pYES2-HIK1 therein (lowermost rows) were added (5 μl each) dropwise at 9 mm spacings (from the left, 10 ^7, 10^6, 10^5, and 10^4/ ml) in order from the uppermost rows of plates of 90 mm in diameter containing a variety of reagents, followed by culture at 30° C. for 60 hours (or 96 hours for NaCl). The reagents were added to each SG medium so that 25 ppm fludioxonil, 25 ppm iprodione, 50 ppm chloroneb, and 0.5 M NaCl were contained in order from the second leftmost plate; and
(§2) Reagent sensitivity was analyzed by plate culture and liquid culture. In the plate culture, strains were precultured overnight in 5 ml of SD/-Ura and then collected, followed by washing with 10 ml of SG/-Ura. […]

[2] = test system: strain introducing pYES2-hik1-H736V; experiment: Reagent sensitivity by plate culture, yeast expressing Hik1-H736V (nonfunctional histidine kinase domain); details: 25 ppm fludioxonil, 25 ppm iprodione, 50 ppm chloroneb; SG plates, 30° C., 72 hours (FIG. 6B)
Description: (§3) The reagents were added to each SG medium so that 25 ppm fludioxonil, 25 ppm iprodione, 50 ppm chloroneb, and 0.5 M NaCl were contained in order from the second leftmost plate;
(§4) Reagent sensitivity was analyzed by plate culture and liquid culture. In the plate culture, strains were precultured overnight in 5 ml of SD/-Ura and then collected, followed by washing with 10 ml of SG/-Ura. The resulting strains were cultured for 8 hours to 10 hours in 10 ml of SG/-Ura, followed by OD600 measurement. They were diluted to 10^7 cells/ml, 10^6 cells/ml, 10^5 cells/ml, and 10^4 cells/ml, and 5 μl each thereof was added dropwise onto SG/-Ura plates supplemented with a variety of reagents, and cultured for 60 hours to 240 hours. In the liquid culture, strains were precultured overnight in 5 ml of SD/-Ura and then collected, followed by washing with 10 ml of SG/-Ura. The resulting strains were cultured for 8 hours to 10 hours in 10 ml of SG/-Ura, followed by OD600 measurement. They were added at OD600=0.01 to 300-ml Erlenmeyer flasks accommodating 50 ml of SG/-Ura containing a variety of reagents. After shaking by spinning at 160 rpm and 27° C., sampling was performed after 12, 15, 18, 21, 24, 33, 36, and 39 hours, followed by OD600 measurement. A growth curve was created to calculate a doubling time.
(§5) (2) Mutagenized HIK1 was prepared with Mutan-Express Km kit (TAKARA SHUZO) using synthetic DNAs for mutagenesis (HK-H736V: 5′-[…]-3′ (SEQ ID NO: 2) and HK-D1153E: 5′-[…]-3′ (SEQ ID NO: 3)). Each mutagenized HIK1 was cloned into the BamHI site of pYES2 to prepare pYES2-hik1-H736V and […]. […]

[3] = test system: ste11 mutant strain introducing pYES2-HIK1; experiment: Reagent sensitivity by plate culture, ste11 mutant strain introducing pYES2-HIK1; details: 25 ppm fludioxonil, 25 ppm iprodione, 50 ppm chloroneb; SG plates, 30° C., 60 hours (FIG. 7A)
From the text: as §1, §2

ATCC201388 [pYES2] = experiment: Reagent sensitivity by liquid culture (doubling time), vector-only control yeast; details: 25 ppm reagent, liquid culture in SG/-Ura (GAL1 expression-inducing conditions), 27° C., 160 rpm, average ± standard deviation
[4] = test system: hog1 mutant strain introducing pYES2-HIK1; experiment: Reagent sensitivity by plate culture, hog1 mutant strain introducing pYES2-HIK1; details: 25 ppm fludioxonil, 25 ppm iprodione, 50 ppm chloroneb; SG plates, 30° C., 60 hours (FIG. 7A)
From the text: as §1, §2

pYES2-HIK1 transformant = experiment: Reagent sensitivity by plate culture, HIK1-expressing yeast; details: for concentration at which the effect was saturated / growth inhibition in the presence of the reagent: SG plates; for concentration at which the effect was saturated: GAL1 expression-inducing conditions (FIG. 5B); for growth inhibition in the presence of the reagent: GAL1 expression-inducing conditions, 30° C., 60 hours, 5-100 ppm (FIG. 5B)
[5] = test system: strain introducing pYES2-hik1-D1153E; experiment: Reagent sensitivity by plate culture, yeast expressing Hik1-D1153E (nonfunctional response regulator domain); details: 25 ppm fludioxonil, 25 ppm iprodione, 50 ppm chloroneb; SG plates, 30° C., 72 hours (FIG. 6B)
Description: as §3, §4, §5

[6] = SG plates, GAL1 expression-inducing conditions, 30° C., 60 hours, 5-100 ppm (FIG. 5B)
[7] = all the strains (control, hog1, ssk1, ste11 mutant) introducing pYES2, 25 ppm fludioxonil, 25 ppm iprodione, 50 ppm chloroneb (FIG. 7A)

Row | Structure (SMILES) | doubling time (ATCC201388 [pYES2-HIK1]) [h] | doubling time (ATCC201388 [pYES2-HIK1]; listed as chloroneb) [h] | sensitivity to the reagent (pYES2 transformant; [6]) | sensitivity to the reagent (pYES2 transformant; [7]) | sensitivity to the reagent [1] | sensitivity to the reagent [2] | sensitivity to the reagent [3] | doubling time (ATCC201388 [pYES2]) [h] | doubling time (ATCC201388 [pYES2]; listed as chloroneb) | sensitivity to the reagent [4] | concentration at which the effect was saturated (pYES2-HIK1 transformant) [ppm] | growth inhibition in the presence of the reagent (pYES2-HIK1 transformant) | sensitivity to the reagent [5] | doubling time (ATCC201388 [pYES2-HIK1]; listed as fludioxonil) [h] | doubling time (ATCC201388 [pYES2]; listed as fludioxonil) | doubling time (ATCC201388 [pYES2-HIK1]; listed as iprodione) [h] | doubling time (ATCC201388 [pYES2]; listed as iprodione) | difference in sensitivity between the pYES2-HIK1 transformant and the pYES2 transformant (pYES2-HIK1 transformant; expression-inducing conditions, 0.25 ppm, cultured for 240 hours (FIG. 5B))
1 | COc1cc(Cl)c(OC)cc1Cl [Chloroneb, chloroneb] | 2.90 ± 0.11 | 2.90 | no sensitivity | no sensitivity | did not exhibit sensitivity | hardly exhibited sensitivity | exhibited sensitivity | 2.17 ± 0.08 | around 2.2 hours | did not exhibit sensitivity | 50 | exhibited growth inhibition | hardly exhibited sensitivity |  |  |  |  | 
2 | N#Cc1c[nH]cc1-c1cccc2c1OC(F)(F)O2 [Fludioxonil, fludioxonil] | 4.25 ± 0.20 |  | no sensitivity | no sensitivity | did not exhibit sensitivity | hardly exhibited sensitivity | exhibited sensitivity | 2.25 ± 0.06 |  | did not exhibit sensitivity | 5 | exhibited growth inhibition | hardly exhibited sensitivity | 4.25 | around 2.2 hours |  |  | 
3 | CC(C)NC(=O)N1CC(=O)N(c2cc(Cl)cc(Cl)c2)C1=O [Iprodione, iprodione] | 3.12 ± 0.10 |  | no sensitivity | no sensitivity | did not exhibit sensitivity | hardly exhibited sensitivity | exhibited sensitivity | 2.12 ± 0.06 |  | did not exhibit sensitivity | 25 | exhibited growth inhibition | hardly exhibited sensitivity |  |  | 3.12 | around 2.2 hours | 
4 | C[C@@H]1C[C@@H]([C@H](O)CC2CC(=O)NC(=O)C2)C(=O)[C@@H](C)C1 [cycloheximide] |  |  |  |  |  |  |  |  |  |  |  |  |  |  |  |  |  | No difference in sensitivity
